# Results reported in patent publication US20100162416A1, “Multi-stage stem cell carcinogenesis” (StemLifeLine, Inc., priority 2008, published 2010).
# Entries after “also recorded” stand apart in the source; their conditions may differ.
# Experiments:
# Assay type in all cases: cell-based, human
# [1] = test system: isogenic cloned cell lines derived from one hESC line; assay: Resistance of the panel of isogenic cloned cell lines to common chemotherapeutic agents; details: panel of isogenic cloned cell lines with CSC phenotype
# From the text: Using one hESC line, a panel of isogenic cloned cell lines has already been generated and banked. […] High resolution karyotype (G-banding), proliferation rate (BrdU incorporation and doubling time), growth factor dependence and expression of CSC/SC markers such as Oct-4, Nanog, CD133, ABCG2, ABCG5 etc) have been examined and the stability of the expressed phenotypes was confirmed.
# [2] = test system: selected clones (05, 07, 11) and parental hESC; assay: Drug resistance profile: proliferation rate by BrdU incorporation in the presence of chemotherapeutic reagents
# Protocol: Drug resistance profiles of selected clones were determined for the common classes of chemotherapeutic reagents. Proliferation rate of the clones and parental hESC was measured in the presence of multiple concentrations of 10 different drugs using BrdU incorporation assay. Each drug has been tested in at least three independent experiments, each condition being done in triplicate. The approximate half maximal inhibitory concentration (IC50) was determined for each of the drugs tested. IC50 represents the concentration of a drug that is required for 50% inhibition in vitro.
# Response of the selected clones to the following chemotherapeutic reagents was examined. The chemotherapeutic agents were chosen for their wide-spread use and variety with respect to their modes of action: 5-fluorouracil (5-FU), doxorubicin (Doxo), irinotecan (SN-38), taxol, etoposide (VP-16), carmustine (BCNU), methotrexate (MTX), cytarabine (AraC), temozolomide (MTIC) and chlorambucil (CLB). […] Proliferation rate was measured by BrdU incorporation at the end of the drug treatment. All samples were made in triplicates in each of the three independent experiments performed.
# clones 07-B1 and 11-B19 = assay: Drug resistance of BCNU-selected high-resistance clones; details: clones selected by increasing concentrations of BCNU; data not shown
# Protocol: Two clones, 07 and 11 were exposed to increasing concentrations of BCNU. The surviving cells were cloned and a number of high-resistance clones two of which, 07-B1 and 11-B19 were isolated. Their drug resistance to BCNU and MTIC was tested.
# [3] = test system: clones 05, 07, 11, isogenic hESC control and isogenic cancer lines TMEC02, TMEC03; assay: Salinomycin dose response measured by BrdU incorporation; details: clones 05 and 07 compared with clone 11, isogenic hESC control
smiles,measurement,setting,value
COc1cccc2c1C(=O)c1c(O)c3c(c(O)c1C2=O)C[C@@](O)(C(=O)CO)C[C@@H]3O[C@H]1C[C@H](N)[C@H](O)[C@H](C)O1 [doxorubicin],resistance of transformed cell lines to the agent,[1],increased resistance
"O=c1[nH]cc(F)c(=O)[nH]1 [5-FU, 5-fluorouracil]",resistance of clone 07,[2]; clone 07 compared with clone MEC-11,more resistant
CC(=O)O[C@H]1C(=O)[C@@]2(C)[C@H]([C@H](OC(=O)c3ccccc3)[C@]3(O)C[C@H](OC(=O)[C@H](O)[C@@H](NC(=O)c4ccccc4)c4ccccc4)C(C)=C1C3(C)C)[C@]1(OC(C)=O)CO[C@@H]1C[C@@H]2O [paclitaxel],resistance of transformed cell lines to the agent,[1],increased resistance
"O=NN(CCCl)C(=O)NCCCl [BCNU, carmustine]",resistance of clones 07-B1 and 11-B19 relative to parental clones,clones 07-B1 and 11-B19,higher resistance than the parental clones
same,resistance of transformed cell lines to the agent,[1],increased resistance
CC[C@@H](C(=O)[C@@H](C)[C@@H](O)[C@H](C)[C@@H]1O[C@@H]([C@@H](CC)C(=O)O)CC[C@@H]1C)[C@H]1O[C@]2(C=C[C@@H](O)[C@]3(CC[C@@](C)([C@H]4CC[C@](O)(CC)[C@H](C)O4)O3)O2)[C@H](C)C[C@@H]1C [salinomycin],effect of drug on proliferation of clones 05 and 07,[3],most significantly affected; also recorded: significantly more affected
CO[C@@]12[C@H](COC(N)=O)C3=C(C(=O)C(C)=C(N)C3=O)N1C[C@@H]1N[C@@H]12 [mitomycin C],effect on proliferation (positive control),"[2]; all cell lines, BrdU incorporation at end of drug treatment",induced growth arrest in all cell lines
